Assay results from US5663207A, “Gem-dichlorocyclopropanes as antitumor agents” (priority 1995, dated 1997).
Entries after “also recorded” stand apart in the source; their conditions may differ.

Columns and labels:
estrogen receptor = target: T1, estrogen receptor (Rattus norvegicus, UniProt P06211); test: Receptor binding assay: displacement of [3H]-estradiol from rat uterine cytosol; design: species or system rat (Sprague-Dawley); conditions: for RBA (relative binding affinity): relative to estradiol = 100%, average of duplicate determinations minus nonspecific binding
T1 construct: ovariectomized rat uterine cytosolic estrogen receptor preparation; from tissue; host or cells: uterine cytosol of ovariectomized Sprague-Dawley rats (immature rats from Sasco are named as uterus source, mature ovariectomized rats)
T1 sequence (P06211 1-600): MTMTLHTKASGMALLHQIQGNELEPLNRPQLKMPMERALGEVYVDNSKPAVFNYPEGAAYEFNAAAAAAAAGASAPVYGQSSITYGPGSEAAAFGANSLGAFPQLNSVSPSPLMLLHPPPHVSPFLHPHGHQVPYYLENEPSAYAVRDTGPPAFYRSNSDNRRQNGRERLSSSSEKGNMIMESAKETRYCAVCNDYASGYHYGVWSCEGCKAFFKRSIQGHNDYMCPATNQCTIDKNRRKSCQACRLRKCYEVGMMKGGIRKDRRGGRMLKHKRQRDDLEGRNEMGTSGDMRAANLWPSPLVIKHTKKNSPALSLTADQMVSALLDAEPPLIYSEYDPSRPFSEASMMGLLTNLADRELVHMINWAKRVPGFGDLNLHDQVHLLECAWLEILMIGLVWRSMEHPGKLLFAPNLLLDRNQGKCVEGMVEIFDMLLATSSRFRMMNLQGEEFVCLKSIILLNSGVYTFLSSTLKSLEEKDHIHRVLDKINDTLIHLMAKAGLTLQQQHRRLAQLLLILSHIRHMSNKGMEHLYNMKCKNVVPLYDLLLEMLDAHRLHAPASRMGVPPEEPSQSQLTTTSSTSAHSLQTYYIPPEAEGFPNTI
Description: The biological evaluation of the test compounds consisted of the in vitro rat cytosolic estradiol receptor binding assay, the in vivo immature mouse uterotrophic (estrogenic) and antiuterotrophic (antiestrogenic) assays, and the in vitro suppression of the proliferation of the ER positive MCF-7 human breast cancer cell line. Estradiol (pure agonist), TAM (agonist in mice and antagonist in MCF-7), MER 25 (pure antagonist) and Analog II (antagonist in mice) were used in the assay as standards.
(§1) Vital-free immature female Swiss-Webster mice were obtained at 17-19 days of age from Sasco weighing 8-10 g, and were used in the uterotrophic and antiuterotrophic assays. Immature female Sprague-Dawley rats, obtained at 17-19 days of age from Sasco, weighing 28-33 g, were used as sources of uteri for the estradiol receptor binding assay. Animals were housed in wire topped polycarbonate cages at six animals per cage, with the environment controlled at 25° C. and a 12 h light/dark cycle. The animals received a diet of Wayne Lab Blox rodent chow and tap water ad libitum.
The RBAs of the test compounds were determined by the displacement of [^3 H]-estradiol in vitro, as described previously (DAY, B. W., […], R. A., JAIN, P., PENTO, J. T., MOUSISSIAN, G. K. AND MEYER, K. L. (1991), "Synthesis and biological evaluation of a series of 1,1-dichloro-2,2,3-triarylcyclopropanes as pure antiestrogens", Journal of Medicinal Chemistry, 34, 842; KORENMAN, S. G. (1969), "Comparative binding affinity of estrogens and its relation to estrogenic potency", Steroid, 13, 163). Mature female Sprague-Dawley rats were ovariectomized at least two weeks prior to the receptor binding experiment. Each test compound was assayed at three concentrations in duplicate over a range of 10^-3 -10^-5 M and 10^-6 -10^-8 M for the estradiol standard. The non-specific binding was determined by a parallel incubation of each compound with the addition of diethylstilbestrol to give a final concentration of 2×10^-5 M DES which was sufficient to saturate all the estrogen receptors present in the cytosolic fraction. Specific displacement for each compound was determined by subtraction of nonspecific displacement from total displacement. The [^3 H]-estradioldisplacement curve for each test compound was determined by linear repression analysis and plotted graphically. The relative binding affinity for each compound was calculated (BLISS, C.I. (1967), "The statistics in biology", McGraw Hill, Inc: New York).
^a Determined by competitive radiometric binding assay with rat
uterine cytosol as a source of receptor, [^3 H]estradiol as tracer,
and dextrancoated charcoal as absorbant for free ligand.
^c Binding affinities are expressed relative to that of estradiol =
100% (RBA = relative binding affinity) and are the average of duplicate
determinations minus nonspecific binding.
The relative binding affinities (RBAs), as determined by the competitive radiometric binding assay and measured by [^3 H]-estradiol displacement from the ovariectomized rat uterine cytosolic estrogen receptor preparation, after subtracting non-specific receptor binding, were calculated for all of the synthesized target compounds, TAM, MER 25, Analog II, and estradiol. The displacement curves were plotted as percent receptor-bound [^3 H]-estrodiol versus concentration of test compounds (not shown) and the receptor binding affinity of each compound is presented in Table II.

[1] = system: Immature Swiss-Webster female mice (uterine weight); test: Uterotrophic assay for estrogenic activity in immature mice; assay type: in vivo, mouse (Swiss-Webster)
Description: (§2) The biological evaluation of the test compounds consisted of the in vitro rat cytosolic estradiol receptor binding assay, the in vivo immature mouse uterotrophic (estrogenic) and antiuterotrophic (antiestrogenic) assays, and the in vitro suppression of the proliferation of the ER positive MCF-7 human breast cancer cell line.
as §1
Immature Swiss-Webster female mice (8-15 g) at 17-19 days of age were used. Estradiol was used in the dosage range of […] (total dose) as the assay standard. Each cyclopropyl analogue was examined at doses of 5, 25, and 100 μg (total dose). […] Estrogenic activity was measured as an increase in uterine weight produced by each test compound.

[2] = system: Immature Swiss-Webster female mice (estradiol-stimulated uterine weight); test: Antiuterotrophic assay for antiestrogenic activity in immature mice; assay type: in vivo, mouse (Swiss-Webster); conditions: 0.4, 0.8, and 1.6 mg; three-day assay; estradiol 0.03 μg
Description: as §2
as §1, with “The animals received a diet of Wayne Lab Blox rodent chow and tap water ad libitum.” left out
The antiestrogenic assay was conducted as described for the estrogenic assay, except that each mouse in the cyclopropyl treatment groups received a standard stimulating dose of estradiol (0.03 μg) in sesame oil (0.1 mL) and the test compounds or MER 25 were administered in isopropyl myristate (0.05 mL) in a dosage range of 0.4, 0.8 and 1.6 mg (total dose). […] Antiestrogenic activity was measured as a decrease in the estradiol-stimulated […] response in groups that received both the test compound and estradiol as compared to the group treated only with estradiol.

SMILES	RBA ranking (in words) (estrogen receptor; among the compounds tested)	RBA (relative binding affinity) (estrogen receptor) [%]	uterine weight response (estrogenic activity, in words) ([1]; doses of 5, 25 and 100 μg (total dose))	relative potency (uterotrophic) versus estradiol ([1]; of that of estradiol, doses of 5, 25, and 100 μg) [%]	antiestrogenic activity: effect on estradiol-induced uterine weight gain (in words) [2]
Oc1ccc(C2(c3ccc(O)cc3)C(Cl)(Cl)C23CCCCC3)cc1 [Compound 30, 1,1-Dichloro-2,2-bis-(p-hydroxyphenyl)-spiro[2.5]octane]	comparable to tamoxifen; also recorded: the highest	0.62	dose-dependent increase in uterine weight	0.05	augmented uterotrophic effects beyond the stimulating dose of estradiol
CC(=O)Oc1ccc([C@H]2[C@@H](c3ccccc3)C2(Cl)Cl)cc1 (relative stereo) [Compound 10, 1,1-Dichloro-cis-2-(p-acetoxyphenyl)-3-phenylcyclopropane]	–	0.07	–	–	–
